{"source": "patent US9056048B2", "about": "“Synthesis and use of cationic steroids for anti-inflammatory drug therapy” (priority 2001, dated 2015)", "key": {"mouse lungs": {"test_system": "mouse lungs", "assay": "AdV vector formulated with lipid, intranasal delivery to mouse lungs", "format": "in vivo, C57Bl/6 mice", "design": "key: 0 (normal, no inflammation); mild (+) monocytic infiltrate and congestion; +++ (extensive inflammation)", "details": "day 7", "from_the_text": "E1/E3-deleted replication-deficient, recombinant adenovirus vectors (2-4.5×10^12 GC/ml stock) expressing either a LacZ or a AlkP reporter were created as previously described in Gao et al. (1996, J. Virol. 70:8934-8943) by homologous recombination between the shuttle plasmid that carries the transgene and the 5′ end of the adenovirus genome with E1 deleted and 3′ end of H5.sub360 in which the E3 gene was inactivated by a small deletion. The recombinant viruses were propagated in 293 cells and purified by the standard CsCl gradient sedimentation method. The replication-deficient AAV2/5CBntLacZ contains the LacZ gene with a nucleus localization sequence at its N-terminus, under the transcriptional control of the chicken h-actin promoter. The AAV (2/5) vector (˜2×10^12 GC/ml stock) was produced by transcapsidation in 293 cells using a triple transfection method and purified by CsCl gradient sedimentation as described in Gao et al. (2002, Proc. Natl. Acad. Sci. USA 99:11854-11859).\nC57Bl/6 mice (6 to 8 weeks of age) were anesthetized by an i.p. injection of a 3:2 mixture of xylazil (20 mg/ml):ketamine (100 mg/ml). For dosing, mice were suspended from their dorsal incisors (hind quarters supported) and a dose of 10^11 GC of AdV or AAV vector was delivered as a 50-μl bolus into the nostrils using a gel-loading tip (Finnpippette). […]"}, "physchem": {"assay": "physchem", "details": "water"}, "osteoblasts": {"test_system": "osteoblasts", "assay": "In vitro bone culture inflammatory model, qRT-PCR transcripts", "format": "cell-based, murine", "details": "for reduction in IL-6 transcripts over control: qRT-PCR normalized to GAPDH; for OPG/RANKL ratio: transcripts, qRT-PCR", "method": "For co-cultures with osteoblasts, bone marrow cells (1×10^5 cells/well in 96-well plates) were co-cultured with calvarial osteoblasts (1×10^4 cells/well) in α-minimal essential medium containing 10% fetal bovine serum and supplemented with 20 nM 1α, 25(OH)2D3 and 1 μM prostaglandin E2 (PGE2) for 9 days. […] Co-cultures treated with Vitamin D3 (VitD3) were treated at 20 nM.\nFor transcript analysis, total RNA was isolated using the Absolutely RNA microprep kit (Stratagene, La Jolla, Calif.). RNA was reverse transcribed using Superscript III reverse transcriptase and oligo(dT) (Invitrogen, Carlsbad, Calif.), and complementary DNA was purified using Qiagen's PCR purification kit (Valencia, Calif.). Complementary DNA from untreated samples was used for optimizing PCR conditions, with primers targeting the gene of interest. For the gene RANKL, the forward primer was 5′-[sequence]-3′ and the reverse primer was 5′-[sequence]-3′, for the OPG gene the forward primer was 5′-[sequence]-3′ and the reverse primer was 5′-[sequence]-3′, for the IL-6 gene the forward primer was 5′-[sequence]-3′ and the reverse primer was 5′-[sequence]-3′. In order to normalize the expression levels, GAPDH was used as a housekeeping gene with forward primer 5′-[sequence]-3′ and reverse primer 5′-[sequence]-3′. A standard curve was created using the untreated controls and the optimized PCR conditions for each set of primers on a Roche LightCycler 480 (Indianapolis, Ind.). Quantitative real-time PCR was performed using the LightCycler FastStart DNA MasterPLUS SYBR Green I kit with melting curve analysis provided by the LightCycler software.\nTNF-α is utilized as an inflammatory cytokine to initiate the NF-κB pathway and subsequent effect on RANKL."}, "[1]": {"test_system": "bovine aortic endothelial cells", "assay": "Lipofection of BAEC with EGFP plasmid", "format": "cell-based", "details": "alone, unconjugated", "method": "Bovine aortic endothelial cells (BAEC, passage 4-13) were passaged at a 1:3 split to 24-well culture plates, and then grown to dense confluence before lipofection. Growth medium was Dulbecco's modified Eagle's medium (DMEM) containing 10% heat inactivated charcoal-filtered (to remove steroid hormones) fetal calf serum (Hyclone), 0.30 mg/ml glutamine, 150 U/ml penicillin, and 0.15 mg/ml streptomycin (Gibco). 293 cells were grown under identical conditions. The plasmids pEGFP-N3 and pGRE-SEAP (Clontech) were used for expression of EGFP or secreted alkaline phosphatase under the regulation of CMV or GRE promoters, respectively. […] In other experiments, Lipofectamine 2000 (Invitrogen), in a 1:1 (wt) ratio with nucleic acid, was used according to the manufacturer's instructions.\nFor fluorescence microscopy and flow cytometry, pEGFP-N3 plasmid (Clontech, Palo Alto, Calif.) was used to generate GFP as the fluorescent reporter transgene protein. Cells were transfected in 6-well plates with each condition in duplicate. One day after GFP transfection, cells were imaged and then harvested in 500 ul PBS and kept on ice until analysis. A BD Biosciences (Franklin Lakes, N.J.) FACSCalibur flow cytometer was used to obtain fluorescence data with 50,000 counts recorded per condition.\nEGFP expression was calibrated using 0 to 200 ng recombinant GFP (Clontech) in 750 μl PBS. […]"}, "[2]": {"test_system": "neutrophils in the i.p. space", "assay": "Thioglycollate (TG) model of inflammation", "format": "in vivo, BALB/c mice", "protocol": "Male, 6- to 8-week-old (20 g) BALB/c mice, six per group, were used. […] After 30 minutes, mice were injected i.p. with 1.5 mL of 3% TG in PBS containing 1% ethanol. At 4 hour post-TG, the i.p. fluid was collected and neutrophils were counted."}, "mouse lung": {"test_system": "mouse lung", "assay": "AAV vectors co-formulated with DS or DS/D2S, intranasal instillation", "format": "in vivo, C57Bl/6 mice", "protocol": "Cationic liposomes (DS/D2S) in a 1:1 mole ratio with DOPE (51 μg total lipid) were mixed with AAV (10^11 GC/dose) in equal volume at room temperature for 15 minutes prior to instillation. C57Bl/6 mice (6 to 8 weeks of age) were anesthetized by an i.p. injection of a 3:2 mixture of xylazil:ketamine. For dosing, mice were suspended from their dorsal incisors (hind quarters supported) and a dose of 10^11 GC of AAV vector was delivered as a 50 μl bolus into the nostrils.\nTo evaluate luciferase transgene expression, 250 μl of a 15 mg/ml luciferin solution (Caliper Life Sciences, Hopkinton, Mass.) was injected per 25 gram body mass by i.p. injection. Five minutes after luciferin injection the mice were anesthetized by an i.p. injection of a 3:2 mixture of xylazil:ketamine. Animals were imaged 15 minutes after the original luciferin injection with a high sensitivity CCD Xenogen IVIS bioluminescent imaging system (Caliper Life Sciences).\nFor lacZ transgene expression evaluation, lungs were harvested and inflated with a 1:1 mixture of PBS and OCT embedding compound. One lobe was then submerged in OCT, frozen in isopentane cooled with liquid nitrogen, and cryosectioned ([…]). Sections were fixed in 0.5% glutaraldehyde in PBS (Electron Microscopy Sciences, Hatfield, Pa.) for 10 minutes (4° C.) and then washed twice in PBS/1 mM MgCl2 (4° C.) and stained with X-gal substrate (5-bromo-4-chloro-3-indoyl-β-D-galactopyranoside) for 16 hours at 37° C. to reveal LacZ-positive cells. After being washed in PBS, sections were counterstained with nuclear fast red, dehydrated through a graded ethanol series and xylene, coverslipped, and imaged. The other lobe was placed in 2 ml of Lysis Buffer (Roche, Indianapolis, Ind.) and placed on ice. Directly after all samples were collected, each sample was homogenized for approximately 10 seconds. […] A mouse β-galactosidase enzyme-linked immunosorbent assay (ELISA) (Roche) was used on lung homogenates according to the manufacturer's instructions to quantitatively measure LacZ gene expression. […]"}, "[3]": {"assay": "Hyaluronic acid release assay (dialysis)", "protocol": "Hyaluronic acid sodium salt (Rooster Comb HA; Sigma) was diluted in PBS at 1 mg/ml to mimic an anionic glycosaminoglycan at a nominal interstitial concentration."}, "[4]": {"test_system": "GRE promoter construct (pGRE-SEAP)", "assay": "Induction of transcription from GRE (GRE-SEAP promoter construct) in 293 cells", "format": "cell-based", "protocol": "293 cells were lipofected with GRE-SEAP plasmid in triplicate using 1 μg plasmid and 6 μg Lipofectamine per well in 24-well plates. […] After 24 hr of induction, 50 μl aliquots of growth media were analyzed for alkaline phosphatase activity using the SEAP fluorogenic assay following the manufacturer's instructions."}}}
{"molecule": "C[C@@H]1C[C@H]2[C@@H]3CCC4=CC(=O)C=C[C@]4(C)[C@@]3(F)[C@@H](O)C[C@]2(C)[C@@]1(O)C(=O)CO", "note": "[dexamethasone, reference compound]", "values": [{"measurement": "lung inflammation score by blinded pathologist", "setting": "mouse lungs", "value": 0}, {"measurement": "solubility", "setting": "physchem", "value": 100, "unit": "µg/mL"}, {"measurement": "reduction in IL-6 transcripts over control", "setting": "osteoblasts", "value": 72, "unit": "%"}]}
{"molecule": "NCCCNCCCCNCCCN", "note": "[Spermine, spermine]", "values": [{"measurement": "gene transfer activity", "setting": "[1]", "value": "no detectable gene transfer activity"}]}
{"molecule": "TNF-α", "values": [{"measurement": "OPG/RANKL ratio", "setting": "osteoblasts", "value": 0.12}]}
{"molecule": "CC1C[C@H]2[C@@H]3CCC4=CC(=O)C=C[C@]4(C)[C@@]3(F)C(O)C[C@]2(C)[C@@]1(O)C(=O)CSCCCC(=N)NCCCNCCCCNCCCN.O=C(O)C(F)(F)F", "note": "(stereo partly drawn) [DS, N-[3-({4-[(3-aminopropyl)amino]butyl}amino)propyl]-4-[(9-fluoro-11,17-dihydroxy-16-methyl-3,20-dioxopregna-1,4-dien-21-yl)sulfanyl]butanimidamide-TFA Salt]", "values": [{"measurement": "reduction in neutrophil immigration versus vehicle", "setting": "[2]; 5.85 mg/kg i.p. 30 minutes before TG, 4 hour post-TG", "value": 60, "unit": "%"}, {"measurement": "lethality", "setting": "[2]; tested dose 5.85 mg/kg i.p.", "value": "not lethal"}, {"measurement": "lacZ transgene level in lung homogenate compared to control", "setting": "mouse lung; AAV2/6.2, ELISA, day 28", "value": "higher average transgene levels"}, {"measurement": "luciferase luminescence in the lung", "setting": "mouse lung; AAV2/9, day 28", "value": "minimal luminescence in the lung"}, {"measurement": "LacZ gene expression versus AAV2/9-LacZ alone (readministered control)", "setting": "mouse lung; day 56, formulation at day 0, re-administration day 28", "value": 2, "unit": "fold"}, {"measurement": "solubility", "setting": "physchem", "value": "> 100000", "unit": "µg/mL"}, {"measurement": "reduction in IL-6 transcripts over control", "setting": "osteoblasts", "value": 17, "unit": "%"}, {"measurement": "OPG/RANKL ratio", "setting": "osteoblasts", "value": 1.67}, {"measurement": "fraction eluted from HA", "setting": "[3]; 24 hour period", "value": "only a small fraction"}, {"measurement": "half-life for dissociation from HA", "setting": "[3]; in PBS", "value": 56, "unit": "h"}, {"measurement": "time remaining tightly bound to HA", "setting": "[3]; physiological salt buffer", "value": "over 24 hours"}, {"measurement": "SEAP transcription from GRE promoter", "setting": "[4]; 100 nM, 293 cells", "value": "statistically significant levels of SEAP transcription"}, {"measurement": "EC50", "setting": "[4]; Homo sapiens, HEK293, read-out: EC50 of transcription from GRE promoter construct (pGRE-SEAP)", "value": "10 to 100", "unit": "nM"}]}
